For 26 compounds, IC50 results are on record in patent US20220152031A1, “PYRIDAZINONES AND METHODS OF USE THEREOF” (Goldfinch Bio, Inc., priority 2019, published 2022).

The target of this assay is T1, TRPC5 (Homo sapiens, UniProt Q9UL62).
T1 construct: expressed in transfected cells
T1 sequence (Q9UL62 1-973): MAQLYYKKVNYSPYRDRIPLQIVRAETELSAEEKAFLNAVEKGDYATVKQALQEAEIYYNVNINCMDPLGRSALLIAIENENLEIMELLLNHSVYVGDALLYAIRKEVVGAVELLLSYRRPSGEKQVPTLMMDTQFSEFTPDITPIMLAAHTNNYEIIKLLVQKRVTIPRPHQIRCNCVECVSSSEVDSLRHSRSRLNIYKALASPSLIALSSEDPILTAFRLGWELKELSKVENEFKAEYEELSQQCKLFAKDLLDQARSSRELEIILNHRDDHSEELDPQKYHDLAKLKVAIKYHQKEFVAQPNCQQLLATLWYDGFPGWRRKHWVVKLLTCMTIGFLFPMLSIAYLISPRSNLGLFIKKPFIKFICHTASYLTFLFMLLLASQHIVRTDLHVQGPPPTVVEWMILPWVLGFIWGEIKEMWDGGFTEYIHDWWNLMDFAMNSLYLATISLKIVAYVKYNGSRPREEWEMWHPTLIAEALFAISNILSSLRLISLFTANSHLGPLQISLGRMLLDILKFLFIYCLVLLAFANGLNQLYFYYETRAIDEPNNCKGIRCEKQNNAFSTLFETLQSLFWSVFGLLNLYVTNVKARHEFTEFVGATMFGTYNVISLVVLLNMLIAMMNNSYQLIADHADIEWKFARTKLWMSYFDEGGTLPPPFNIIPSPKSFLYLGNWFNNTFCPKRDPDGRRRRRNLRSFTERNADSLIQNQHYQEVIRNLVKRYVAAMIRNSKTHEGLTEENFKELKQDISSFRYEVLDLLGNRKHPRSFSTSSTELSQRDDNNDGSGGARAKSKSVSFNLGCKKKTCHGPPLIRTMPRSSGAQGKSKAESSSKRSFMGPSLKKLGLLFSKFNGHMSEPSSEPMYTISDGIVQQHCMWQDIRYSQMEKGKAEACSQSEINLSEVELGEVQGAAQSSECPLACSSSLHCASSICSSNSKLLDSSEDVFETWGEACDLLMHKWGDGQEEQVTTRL
The experiment in a line: TRPC5 activity assay (FLIPR calcium fluorescence, HEK-TREx hTRPC5 cells). The class given is cell-based. The following applies: HEK-TREx hTRPC5 cells, FLIPR, 30 μM Riluzole stimulation; read-out: TRPC5. Here is the method:
ICLN-1633 cells (HEK-TREx hTRPC5) expressing TRPC5 were generated as follows. Commercially available HekTrex-293 cells were seeded at 0.7×10^6 cells/well in a 1×6-well plate 24 hrs prior to transfection using 2 mL cell growth media containing no antibiotics (lx DMEM/high glucose (Hyclone #SH30022.02); 10% fetal bovine serum (Sigma) 2 mM sodium pyruvate, 10 mM HEPES). […] On day 2, 2 μg of plasmid DNA plus 6 μl of Xtreme-GENE HP reagent in Optimem (200 μl total volume) was prepared and incubated for 15 min at room temperature. This plasmid solution was then gently overlayed dropwise onto each well and the plate was gently swirled to mix complex with the media for approximately 30 seconds. Transfected cells were incubated at 37° C. in a 10% CO2 incubator for 24 hrs. The transfected cells were harvested and transferred into 2×150 mm dishes containing cell growth media with no antibiotics at 37° C.
The next day selection was initiated to generate a stable pool by adding cell growth media containing 150 μg/mL Hygromycin and 5 μg/mL Blasticidin and cells were allowed to grow. Media with the selection agent was changed every 1-2 days as needed to remove dead cells. After 7 days, the hygromycin concentration was reduced to 75 μg/mL and cells growth was allowed to continue.
Single clones were selected as follows. The stable pool was diluted to 10 cells/mL and seeded (100 μl/well) into 24×96 well plates (˜1 cell/well) and allowed to grow for 7 days in cell growth media. Fresh media (100 μl) was added and the cells allowed to grow for another 1-2 weeks and then stored frozen or used immediately.
10-point dose response curves were generated using the Echo-550 acoustic dispenser. Compound source plates were made by serially diluting compound stocks to create 10 mM, 1 mM, and 0.1 mM solutions in DMSO into Echo certified LDV plates. The Echo then serially spotted 100% DMSO stock solutions into source dose response plates to generate a 4-fold dilution scheme. 100% DMSO was added to the spotted dose response plates to bring the final volume to 5 μl. 300 nl of the dose response stock plate was then spotted into pre-incubation and stimulation assay plates. 50 μl of pre-incubation buffer and 100 μl of stimulation buffer was then added to the plates resulting in a final assay test concentration range of 30 μM to 0.0001 μM with a final DMSO concentration of 0.3%.
Human ICLN-1633 cells expressing were plated onto 384 well, black PDL-coated microplates and maintained in TRPC5 growth media the day prior to use for experiments. TRPC5 expression was induced by the application of 1 μg/mL tetracycline at the time of plating. […] Cells are incubated at room temperature, protected from light, for 60-90 minutes. After the incubation period, the dye is removed and replaced with 10 μl of EBSS. Cell, pre-incubation and stimulation plates are loaded onto the FLIPR-II and the assay is initiated. The FLIPR measures a 10 second baseline and then adds 10 μl of 2× compounds (or controls). Changes in fluorescence are monitored for an additional 5 minutes. After the 5 minute pre-incubation, 20 μl of 2× Riluzole (with 1× compound or controls) is added to the cell plate. The final Riluzole stimulation concentration in the assay is 30 μM. After the Riluzole addition, changes in fluorescence are monitored for an additional 5 minutes.
Compound modulation of TRPC5 calcium response was determined as follows. After the Englerin A, fluorescence was monitored for a 5-minute period. The maximum relative fluorescence response (minus the control response of 1 μM of an internal control compound known to maximally block TRPC5 calcium response, the “REF INHIB” in the formula below) was captured and exported from the FLIPR.
Compound effect is calculated as % inhibition using the following formula: […]
wherein “RFU” is the relative fluorescent units.
Turning to `O=c1[nH]ncc(N2CCc3c(nc(CO)nc3Oc3ccc(F)cc3C(F)(F)F)C2)c1Cl` [Compound 125], the IC50 is less than 0.05 µM.

Turning to `O=c1[nH]ncc(N2CCc3c(ncnc3Oc3ccc(F)cc3C(F)F)C2)c1Cl` [Compound 105], the IC50 is less than 0.05 µM.

For `O=c1[nH]ncc(N2CCc3c(ncnc3Oc3cc(F)ccc3C(F)(F)F)C2)c1Cl` [Compound 106], the IC50 was less than 0.05 µM.

As for `CN(c1cnccc1C(F)(F)F)c1ncnc2c1CCN(c1cn[nH]c(=O)c1Cl)C2` [Compound 131, 4-chloro-5-(4-[methyl[4-(trifluoromethyl)pyridin-3-yl]amino]-5H,6H,7H,8H-pyrido[3,4-d]pyrimidin-7-yl)-2,3-dihydropyridazin-3-one], the IC50 was less than 0.05 µM. On to `O=c1[nH]ncc(N2CCc3c(ncnc3Oc3ccccc3C(F)F)C2)c1Cl` [Compound 103, 4-Chloro-5-[4-[2-(difluoromethyl)phenoxy]-5H,6H,7H,8H-pyrido[3,4-d]pyrimidin-7-yl]-2,3-dihydropyridazin-3-one], for which the IC50 was less than 0.05 µM.

`CN(c1ccc(F)cc1C(F)(F)F)c1cc(=O)n(C)c2c1CCN(c1cn[nH]c(=O)c1Cl)C2` [Compound 127, 7-(5-Chloro-6-oxo-1,6-dihydropyridazin-4-yl)-4-[[4-fluoro-2-(trifluoromethyl)phenyl](methyl)amino]-1-methyl-1,2,5,6,7,8-hexahydro-1,7-naphthyridin-2-one]: the IC50 lay within 0.05 to 0.5 µM.

Regarding `Cc1cc(F)ccc1Oc1ncnc2c1CCN(c1cn[nH]c(=O)c1Cl)C2` [Compound 124], the IC50 is less than 0.05 µM. With `O=c1[nH]ncc(N2CCc3c(nc(CO)nc3Oc3ccccc3C(F)(F)F)C2)c1Cl` [Compound 128], the IC50 was less than 0.05 µM. On to `O=c1[nH]ncc(N2CCc3c(nc(CO)nc3Oc3ccc(F)cc3C(F)F)C2)c1Cl` [Compound 134, 4-chloro-5-[4-[2-(difluoromethyl)-4-fluorophenoxy]-2-(hydroxymethyl)-5H,6H,7H,8H-pyrido[3,4-d]pyrimidin-7-yl]-2,3-dihydropyridazin-3-one], for which the IC50 is less than 0.05 µM. Take `O=c1[nH]ncc(N2CCc3c(ncnc3Oc3c(F)cccc3C(F)(F)F)C2)c1Cl` [Compound 121]: the IC50 was less than 0.05 µM. On to `Nc1nc2c(c(Oc3ccccc3Cl)n1)CCN(c1cn[nH]c(=O)c1Cl)C2` [Compound 113], for which the IC50 was less than 0.05 µM. On to `N#Cc1cccc(Oc2ncnc3c2CCN(c2cn[nH]c(=O)c2Cl)C3)c1Cl` [Compound 108, 2-Chloro-3-[[7-(5-chloro-6-oxo-1,6-dihydropyridazin-4-yl)-5H,6H,7H,8H-pyrido[3,4-d]pyrimidin-4-yl]oxy]benzonitrile], for which the IC50 was 0.05 to 0.5 µM.

For the compound `O=c1[nH]ncc(N2CCc3c(ncnc3Oc3cnccc3C(F)(F)F)C2)c1Cl` [Compound 107], the IC50 is less than 0.05 µM. `O=c1[nH]ncc(N2CCc3c(nc(NCCO)nc3Oc3ccccc3C(F)(F)F)C2)c1Cl` [Compound 115, 4-chloro-5-[2-[(2-hydroxyethyl)amino]-4-[2-(trifluoromethyl)phenoxy]-5H,6H,7H,8H-pyrido[3,4-d]pyrimidin-7-yl]-2,3-dihydropyridazin-3-one]: the IC50 fell in the range of 0.05 to 0.5 µM. Take `C[C@@H]1c2ncnc(Oc3ccc(F)cc3Cl)c2CCN1c1cn[nH]c(=O)c1Cl` [Compound 118, 4-chloro-5-[(8R)-4-(2-chloro-4-fluorophenoxy)-8-methyl-5H,6H,7H,8H-pyrido[3,4-d]pyrimidin-7-yl]-2,3-dihydropyridazin-3-one]: the IC50 fell in the range of 0.05 to 0.5 µM.

In the case of `C[C@H](O)c1nc2c(c(Oc3ccccc3C(F)(F)F)n1)CCN(c1cn[nH]c(=O)c1Cl)C2` (single isomer, unassigned) [Compound 123], the IC50 was in the range of 0.05 to 0.5 µM. Turning to `C[C@@H](O)c1nc2c(c(Oc3ccccc3C(F)(F)F)n1)CCN(c1cn[nH]c(=O)c1Cl)C2` (single isomer, unassigned) [Compound 122], the IC50 is less than 0.05 µM. `Nc1nc2c(c(Oc3ccc(F)cc3C(F)(F)F)n1)CCN(c1cn[nH]c(=O)c1Cl)C2` [Compound 116]: the IC50 was less than 0.05 µM. As to `Nc1nc2c(c(Oc3ccc(F)cc3Cl)n1)CCN(c1cn[nH]c(=O)c1Cl)C2` [Compound 112, 5-[2-amino-4-(2-chloro-4-fluorophenoxy)-5H,6H,7H,8H-pyrido[3,4-d]pyrimidin-7-yl]-4-chloro-2,3-dihydropyridazin-3-one], the IC50 was less than 0.05 µM. As to `O=c1[nH]ncc(N2CCc3c(ncnc3N(CCO)c3ccc(F)cc3C(F)(F)F)C2)c1Cl` [Compound 136, 4-Chloro-5-(4-[[4-fluoro-2-(trifluoromethyl)phenyl](2-hydroxyethyl)amino]-5H,6H,7H,8H-pyrido[3,4-d]pyrimidin-7-yl)-2,3-dihydropyridazin-3-one], the IC50 is less than 0.05 µM. Consider `COc1nc2c(c(Oc3ccc(F)cc3C(F)(F)F)n1)CCN(c1cn[nH]c(=O)c1Cl)C2` [Compound 139, 4-Chloro-5-[4-[4-fluoro-2-(trifluoromethyl)phenoxy]-2-methoxy-5H,6H,7H,8H-pyrido[3,4-d]pyrimidin-7-yl]-2,3-dihydropyridazin-3-one], for which the IC50 lay in the range of 0.05 to 0.5 µM. Take `Nc1nc2c(c(Oc3ccccc3C(F)(F)F)n1)CCN(c1cn[nH]c(=O)c1Cl)C2` [Compound 102]: the IC50 was less than 0.05 µM.

Take `O=c1[nH]ncc(N2CCc3c(ncnc3Oc3ccccc3Cl)C2)c1Cl` [Compound 101]: the IC50 is less than 0.05 µM.

As for `O=c1[nH]ncc(N2CCc3c(nc(CO)nc3Oc3ccc(F)cc3Cl)C2)c1Cl` [Compound 114], the IC50 is less than 0.05 µM.

As for `O=c1[nH]ncc(N2CCc3c(ncnc3C3(c4ccc(F)cc4C(F)(F)F)CC3)C2)c1Cl` [Compound 132, 4-Chloro-5-(4-[1-[4-fluoro-2-(trifluoromethyl)phenyl]cyclopropyl]-5H,6H,7H,8H-pyrido[3,4-d]pyrimidin-7-yl)-2,3-dihydropyridazin-3-one], the IC50 fell in the range of 0.05 to 0.5 µM.

Take `O=c1[nH]ncc(N2CCc3c(ccnc3Oc3ccc(F)cc3C(F)(F)F)C2)c1Cl` [Compound 120, 4-chloro-5-[5-[4-fluoro-2-(trifluoromethyl)phenoxy]-1,2,3,4-tetrahydro-2,6-naphthyridin-2-yl]-2,3-dihydropyridazin-3-one]: the IC50 was less than 0.05 µM.
